Laboratory results taken from US10258603B2 (priority 2014, dated 2019).

These molecules were tested against T1, TAF1-BD2 (Homo sapiens, UniProt P21675) (assay: TAF1-BD2 TR-FRET Binding Assay). Conditions: Assay: TAF-1.
T1 sequence (P21675 1525-1656): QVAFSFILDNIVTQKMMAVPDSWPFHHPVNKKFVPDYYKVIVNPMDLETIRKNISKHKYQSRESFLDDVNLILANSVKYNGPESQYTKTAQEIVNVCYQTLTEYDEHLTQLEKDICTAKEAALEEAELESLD
Protocol: Specifically, in a 384 well ProxiPlate TAF1-BD2 (6 nM final) was combined with biotin-ligand (50 nM final) in 50 mM HEPES (pH 7.5), 50 mM NaCl, 1 mM TCEP, 0.01% (w/v) BSA, and 0.008% (w/v) Brij-35 either in the presence of DMSO (final 0.2% DMSO) or compound dilution series in DMSO. After 10 minutes incubation at room temperature, a mixture Eu-W1024 Anti-6×His antibody (Perkin Elmer AD0110) and SureLight™ Allophycocyanin-Streptavidin (APC-SA, Perkin Elmer CR130-100) were added to a final concentrations of 0.2 nMolar antibody and 25 nMolar APC-SA, respectively. After twenty minutes of equilibration, the plates were read on an Envision instrument and IC50s calculated using a four parameter non-linear curve fit.
`Cn1cc(C(=O)N2CCC(c3cccc(F)c3)CC2)c2cc[nH]c2c1=O` [Example 49, 4-[4-(3-fluorophenyl)piperidine-1-carbonyl]-6-methyl-1H-pyrrolo[2,3-c]pyridin-7-one] was tested, and the IC50 was 3900 nM.
Molecule `Cn1cc(C(=O)N2CCC(c3cnccn3)CC2)c2cc[nH]c2c1=O` [Example 51, 6-methyl-4-(4-pyrazin-2-ylpiperidine-1-carbonyl)-1H-pyrrolo[2,3-c]pyridin-7-one] has an IC50 of 4400 nM.
In the case of `CN(C1CCCCC1)C1CCN(C(=O)c2cn(C)c(=O)c3[nH]ccc23)CC1` [Example 52, 4-[4-[cyclohexyl(methyl)amino]piperidine-1-carbonyl]-6-methyl-1H-pyrrolo[2,3-c]pyridin-7-one], the IC50 is reported as 7100 nM.
`Cn1cc(C(=O)N2CCC(F)CC2)c2cc[nH]c2c1=O` [Example 53, 4-(4-fluoropiperidine-1-carbonyl)-6-methyl-1H-pyrrolo[2,3-c]pyridin-7-one] was tested, and the IC50 was 8200 nM.
With `Cn1cc(C(=O)N2CCC(CCNS(C)(=O)=O)CC2)c2cc[nH]c2c1=O` [Example 54, N-[2-[1-(6-methyl-7-oxo-1H-pyrrolo[2,3-c]pyridine-4-carbonyl)-4-piperidyl]ethyl]methanesulfonamide] the IC50 was 2900 nM.
In the case of `Cn1cc(C(=O)N2CCC(c3ccncn3)CC2)c2cc[nH]c2c1=O` [Example 56, 6-methyl-4-(4-pyrimidin-4-ylpiperidine-1-carbonyl)-1H-pyrrolo[2,3-c]pyridin-7-one], the IC50 is reported as 2500 nM.
In the case of `Cn1cc(C(=O)N2CCC(Cc3ccccn3)CC2)c2cc[nH]c2c1=O` [Example 58, 6-methyl-4-[4-(2-pyridylmethyl)piperidine-1-carbonyl]-1H-pyrrolo[2,3-c]pyridin-7-one], the IC50 is reported as 1500 nM.
`Cn1cc(C(=O)N2CCC(N3CCOCC3)CC2)c2cc[nH]c2c1=O` [Example 63, 6-methyl-4-(4-morpholinopiperidine-1-carbonyl)-1H-pyrrolo[2,3-c]pyridin-7-one] gave an IC50 of 4700 nM.
In the case of `Cn1cc(C(=O)N2CCCCC2)c2cc[nH]c2c1=O` [Example 70, 6-methyl-4-(piperidine-1-carbonyl)-1H-pyrrolo[2,3-c]pyridin-7-one], the IC50 is reported as 6400 nM.
Work on `Cn1cc(C(=O)N2CCC(c3ccccc3)CC2)c2cc[nH]c2c1=O` [Example 71, 6-methyl-4-(4-phenylpiperidine-1-carbonyl)-1H-pyrrolo[2,3-c]pyridin-7-one] yielded an IC50 of 3000 nM.
For `CCCN1CCC(N(C(=O)c2cn(C)c(=O)c3[nH]ccc23)C2CC2)CC1` [Example 82, N-cyclopropyl-6-methyl-7-oxo-N-(1-propyl-4-piperidyl)-1H-pyrrolo[2,3-c]pyridine-4-carboxamide], the IC50 was 7000 nM.
Work on `Cn1cc(C(=O)NCC2CCCC2)c2cc[nH]c2c1=O` [Example 83, N-(cyclopentylmethyl)-6-methyl-7-oxo-1H-pyrrolo[2,3-c]pyridine-4-carboxamide] yielded an IC50 of 670 nM.
In the case of `COCCN(C(=O)c1cn(C)c(=O)c2[nH]ccc12)C1CCN(C)CC1` [Example 84], the IC50 is reported as 5700 nM.
With `Cn1cc(C(=O)NCC2CCCOC2)c2cc[nH]c2c1=O` (centres unmarked) [Example 100] the IC50 was 1700 nM.
Molecule `Cn1cc(C(=O)NCC2CN(C(=O)OC(C)(C)C)C2)c2cc[nH]c2c1=O` [Example 130] has an IC50 of 1200 nM.
Molecule `Cn1cc(C(=O)NCC2CCN(C(=O)OC(C)(C)C)CC2)c2cc[nH]c2c1=O` [Example 133] has an IC50 of 850 nM.
`Cn1cc(C(=O)NCC2CCCN(C(=O)OC(C)(C)C)C2)c2cc[nH]c2c1=O` (centres unmarked) [Example 135] was tested, and the IC50 was 1300 nM.
With `Cn1cc(C(=O)NCC2CCN(C(=O)OC(C)(C)C)C2)c2cc[nH]c2c1=O` (centres unmarked) [Example 137] the IC50 was 510 nM.
With `Cn1cc(C(=O)NC2CCN(c3ccncn3)CC2)c2cc[nH]c2c1=O` [Example 148, 6-methyl-7-oxo-N-(1-pyrimidin-4-yl-4-piperidyl)-1H-pyrrolo[2,3-c]pyridine-4-carboxamide] the IC50 was 440 nM.
Work on `Cc1cnc(N2CCC(NC(=O)c3cn(C)c(=O)c4[nH]ccc34)CC2)nc1` [Example 149, 6-methyl-N-[1-(5-methylpyrimidin-2-yl)-4-piperidyl]-7-oxo-1H-pyrrolo[2,3-c]pyridine-4-carboxamide] yielded an IC50 of 320 nM.
